The source made the active and inactive calls.
Assays:
[1] = HepG2 cell cytotoxicity, dose response, cytotoxicity control for Shn3 inhibitor project, CellTiter-Glo, cherry-picked (AID 624134); type: functional, cell-based
[2] = control 3'UTR Renilla luciferase suppression, dose response, counter-screen for Shn3 inhibitor project, cell-based, Clone20-Shn3RL, cherry-picked (AID 624133); type: functional
[3] = Shn3 3'UTR reporter inhibitors, dose response, cell-based, Clone20 osteoblasts, firefly luciferase, cherry-picked (AID 624132); type: functional;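 further: firefly luciferase luminescence from reporter carrying the Shn3 3'UTR in osteoblasts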
[4] = target: FAD-linked sulfhydryl oxidase ALR (Homo sapiens, UniProt P55789); test: inhibitors of human ALR sulfhydryl oxidase, dose response, biochemical, H2O2 detection, luminescence, cherry-pick (AID 493248)
Sequence of FAD-linked sulfhydryl oxidase ALR (P55789 whole entry): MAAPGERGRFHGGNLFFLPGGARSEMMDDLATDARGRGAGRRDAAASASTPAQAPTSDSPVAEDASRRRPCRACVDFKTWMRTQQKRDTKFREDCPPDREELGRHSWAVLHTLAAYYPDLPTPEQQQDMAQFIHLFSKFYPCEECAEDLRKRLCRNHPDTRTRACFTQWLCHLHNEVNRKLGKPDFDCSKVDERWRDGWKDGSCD

[5] = target: T1, Polyadenylate-binding protein 1 (Homo sapiens, UniProt P11940); test: PABP1 MLLE–PAM2 binding inhibitor potency, dose response, biochemical, fluorescence polarization, FITC-PAM2 peptide (AID 602259); type: functional; conditions: read-out: IC50_Mean
T1 sequence (P11940 whole entry): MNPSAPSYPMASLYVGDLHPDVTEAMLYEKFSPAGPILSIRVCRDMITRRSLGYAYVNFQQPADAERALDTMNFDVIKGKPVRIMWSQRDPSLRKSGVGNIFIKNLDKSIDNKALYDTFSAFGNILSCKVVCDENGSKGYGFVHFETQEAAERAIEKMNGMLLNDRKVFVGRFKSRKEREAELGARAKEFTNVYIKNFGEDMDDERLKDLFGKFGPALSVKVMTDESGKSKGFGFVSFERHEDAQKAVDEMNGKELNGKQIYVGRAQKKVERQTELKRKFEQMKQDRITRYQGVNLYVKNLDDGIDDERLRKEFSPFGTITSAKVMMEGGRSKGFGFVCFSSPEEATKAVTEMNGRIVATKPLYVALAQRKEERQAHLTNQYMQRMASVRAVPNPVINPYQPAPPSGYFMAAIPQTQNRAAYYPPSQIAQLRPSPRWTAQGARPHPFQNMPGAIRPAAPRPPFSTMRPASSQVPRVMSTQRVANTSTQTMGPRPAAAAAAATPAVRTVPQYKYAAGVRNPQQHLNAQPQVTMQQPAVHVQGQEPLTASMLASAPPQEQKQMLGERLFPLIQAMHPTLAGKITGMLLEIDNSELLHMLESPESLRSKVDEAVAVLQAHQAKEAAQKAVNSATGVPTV

[6] = target: T1, Polyadenylate-binding protein 1; test: PABP1 MLLE–PAM2 interaction inhibitors, dose response, miRNA deadenylation inhibitor project, biochemical, fluorescence polarization, Cy5-PAM2 peptide, secondary (AID 602260); type: functional; conditions: read-out: IC50_Mean
[7] = target: T2, High affinity choline transporter 1 (Homo sapiens, UniProt Q9GZV3); test: CHT inhibitors, dose response, cell-based, 5-point CRC, membrane potential dye (AID 504840); type: functional
T2 sequence (Q9GZV3 whole entry): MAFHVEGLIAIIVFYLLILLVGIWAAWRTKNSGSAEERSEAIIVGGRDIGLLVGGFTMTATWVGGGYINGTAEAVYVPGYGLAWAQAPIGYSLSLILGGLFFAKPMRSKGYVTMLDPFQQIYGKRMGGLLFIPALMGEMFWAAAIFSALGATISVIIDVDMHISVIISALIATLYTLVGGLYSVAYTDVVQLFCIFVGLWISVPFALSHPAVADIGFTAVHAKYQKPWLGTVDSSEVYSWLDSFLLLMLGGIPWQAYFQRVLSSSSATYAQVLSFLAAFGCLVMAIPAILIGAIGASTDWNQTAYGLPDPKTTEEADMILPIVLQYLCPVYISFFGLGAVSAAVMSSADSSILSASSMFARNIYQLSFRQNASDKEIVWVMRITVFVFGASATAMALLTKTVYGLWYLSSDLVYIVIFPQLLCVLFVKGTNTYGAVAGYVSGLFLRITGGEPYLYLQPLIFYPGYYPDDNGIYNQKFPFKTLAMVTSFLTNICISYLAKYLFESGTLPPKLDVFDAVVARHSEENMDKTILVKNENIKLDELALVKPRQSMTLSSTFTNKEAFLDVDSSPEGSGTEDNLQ

[8] = HEp-2 cell cytotoxicity, dose response, cytotoxicity control for RSV inhibitor project, HTS (AID 2410); type: functional; conditions: human respiratory syncytial virus
[9] = target: T3, Heat shock factor protein 1 (Mus musculus, UniProt P38532); test: HSF1 potentiators in luciferase reporter cells, confirmation, cell-based, NIH3T3, luminescence, dose retest (AID 435004); type: functional;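 further: stress induced by proteasome inhibitor MG132 added 30 min after compound; luciferase reporter driven by HSF1 response element in NIH3T3 cells; actives raise luminescence as potentiators of the MG132 stress response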
T3 sequence (P38532 whole entry): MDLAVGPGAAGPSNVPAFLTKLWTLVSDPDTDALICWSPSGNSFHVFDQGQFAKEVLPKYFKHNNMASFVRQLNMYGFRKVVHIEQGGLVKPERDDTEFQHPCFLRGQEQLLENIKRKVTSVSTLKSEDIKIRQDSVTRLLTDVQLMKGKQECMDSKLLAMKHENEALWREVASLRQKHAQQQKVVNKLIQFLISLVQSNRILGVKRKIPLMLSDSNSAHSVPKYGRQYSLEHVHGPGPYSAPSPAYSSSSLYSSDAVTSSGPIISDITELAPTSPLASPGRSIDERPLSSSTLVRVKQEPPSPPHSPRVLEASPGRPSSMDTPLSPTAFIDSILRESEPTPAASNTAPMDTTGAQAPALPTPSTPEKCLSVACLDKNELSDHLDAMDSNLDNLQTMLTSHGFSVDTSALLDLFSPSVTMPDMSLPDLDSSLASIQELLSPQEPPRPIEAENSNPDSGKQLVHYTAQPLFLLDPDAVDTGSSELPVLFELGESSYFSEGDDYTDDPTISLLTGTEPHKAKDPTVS

[10] = inhibitors of HIV Env-driven cell fusion, dose response, cherry-pick (AID 652057); type: functional, cell-based
[11] = target: T4, RNA-binding protein pos-1 (Caenorhabditis elegans, UniProt G5EF15); test: inhibitors of POS-1/mex-3 RNA binding, dose response, biochemical, fluorescence polarization (AID 1964);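 further: purified POS-1 fused to maltose binding protein made in E. coli; potency of compounds blocking POS-1 binding to fluorescent RNA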
T4 sequence (G5EF15 whole entry): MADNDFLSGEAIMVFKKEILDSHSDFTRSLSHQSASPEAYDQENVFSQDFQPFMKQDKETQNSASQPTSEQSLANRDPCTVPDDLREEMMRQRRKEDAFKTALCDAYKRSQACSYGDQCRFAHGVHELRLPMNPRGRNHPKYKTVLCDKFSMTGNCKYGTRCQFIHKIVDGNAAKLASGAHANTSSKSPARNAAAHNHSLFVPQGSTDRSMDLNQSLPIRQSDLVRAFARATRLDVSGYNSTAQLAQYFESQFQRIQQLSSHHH

[12] = target: T5, Zinc finger protein mex-5 (Caenorhabditis elegans, UniProt Q9XUB2); test: MEX-5/TCR-2 RNA interaction inhibitors, dose response, biochemical, C. elegans, fluorescence polarization (AID 1960)
T5 sequence (Q9XUB2 whole entry): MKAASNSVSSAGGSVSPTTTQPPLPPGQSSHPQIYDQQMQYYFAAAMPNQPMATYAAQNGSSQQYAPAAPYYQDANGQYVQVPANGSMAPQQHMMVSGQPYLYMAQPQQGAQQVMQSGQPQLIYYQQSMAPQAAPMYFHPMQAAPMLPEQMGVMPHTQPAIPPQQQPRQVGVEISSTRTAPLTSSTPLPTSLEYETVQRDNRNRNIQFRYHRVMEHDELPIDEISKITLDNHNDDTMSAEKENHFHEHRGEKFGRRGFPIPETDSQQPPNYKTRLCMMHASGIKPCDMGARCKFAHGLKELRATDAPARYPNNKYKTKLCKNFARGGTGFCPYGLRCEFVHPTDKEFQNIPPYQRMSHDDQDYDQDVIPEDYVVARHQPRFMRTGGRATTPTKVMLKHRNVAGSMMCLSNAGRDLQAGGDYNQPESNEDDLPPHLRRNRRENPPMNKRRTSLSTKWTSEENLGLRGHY

cells = type: functional
[13] = target: T6, Corticotropin-releasing factor receptor 2/Corticotropin-releasing factor-binding protein (Homo sapiens, UniProt P24387+Q13324); test: activators of CRF receptor 2 with binding protein – uHTS hits, confirmation (AID 602473); type: functional; conditions: read-out: EC50_Mean
T6 sequence (Q13324 whole entry): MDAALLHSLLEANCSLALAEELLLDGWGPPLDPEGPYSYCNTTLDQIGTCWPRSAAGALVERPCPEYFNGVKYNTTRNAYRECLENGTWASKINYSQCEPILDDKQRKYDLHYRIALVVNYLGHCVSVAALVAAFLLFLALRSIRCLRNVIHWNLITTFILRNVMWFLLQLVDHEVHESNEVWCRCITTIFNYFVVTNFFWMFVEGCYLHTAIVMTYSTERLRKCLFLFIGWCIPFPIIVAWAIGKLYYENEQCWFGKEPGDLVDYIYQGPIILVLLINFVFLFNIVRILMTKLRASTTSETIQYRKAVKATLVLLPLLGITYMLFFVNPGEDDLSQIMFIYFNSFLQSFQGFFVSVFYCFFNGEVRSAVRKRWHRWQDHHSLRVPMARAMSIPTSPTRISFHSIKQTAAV
T6 sequence (P24387 whole entry): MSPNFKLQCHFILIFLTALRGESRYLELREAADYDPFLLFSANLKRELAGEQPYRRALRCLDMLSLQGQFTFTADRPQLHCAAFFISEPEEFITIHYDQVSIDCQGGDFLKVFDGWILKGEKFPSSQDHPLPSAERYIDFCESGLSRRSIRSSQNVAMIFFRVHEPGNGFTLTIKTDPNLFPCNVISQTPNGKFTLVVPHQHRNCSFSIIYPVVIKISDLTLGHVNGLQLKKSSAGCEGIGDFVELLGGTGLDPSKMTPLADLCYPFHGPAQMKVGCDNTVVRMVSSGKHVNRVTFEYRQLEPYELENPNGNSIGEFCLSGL

[14] = cytotoxicity toward NIH3T3 fibroblasts, dose response, counter-screen, cell-based, ATP luminescence, mouse fibroblasts (AID 2010); type: functional;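 further: cells exposed to compound for about 90 hours before reading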
[15] = inhibitors of intracellular T. cruzi replication, confirmation, NIH3T3 host cells, beta-gal luminescence (AID 2044); type: functional, cell-based;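 further: intracellular parasites grown in NIH/3T3 mouse fibroblasts as host cells; luminescent beta-galactosidase reporter signal from transgenic T. cruzi replicating inside host cells; inhibitors lower the luminescence signal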
[16] = target: T6, Corticotropin-releasing factor receptor 2/Corticotropin-releasing factor-binding protein; test: Dose Response confirmation of uHTS hits for small molecule antagonists of the CRF-binding protein and CRF-R2 receptor complex.; type: functional; conditions: read-out: IC50_Mean
[17] = target: T3, Heat shock factor protein 1; test: inhibition of MG132-induced HSE-luciferase signal, confirmation, cell-based, NIH3T3, luminescence, dose retest (AID 2382); type: functional;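 further: NIH3T3 fibroblasts with HSF1-driven luciferase reporter stressed by proteasome inhibitor MG132; luminescence from HSF1-driven luciferase expression after 8 hours of MG132 stress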

CCCCN(c1nc2ccccc2nc1Cl)S(=O)(=O)c1ccc(C)cc1
AC50 [1]: > 70 µM (inactive)
AC50 [2]: 30.7 µM (active)
AC50 [3]: 7.22 µM (active)

COc1ccc(N2CCN(C(=O)Cc3ccc(C)cc3)CC2)cc1
AC50 [4]: 5.48 µM (active)

CC(CN1CCN(c2ccccc2)CC1)c1ccccc1 (centres undefined)
AC50 [4]: 66.9 µM (active)

CC(C)(C)c1nnc(N=C(S)Nc2ccccc2)s1
IC50 [5]: > 66 µM (inactive)
IC50 [6]: > 66 µM (inactive)

O=C(NC(=S)Nc1ccccc1O)c1ccccc1Cl
IC50 [5]: > 66 µM (inactive)
IC50 [6]: > 66 µM (inactive)

CC1CCN(Cc2ccc(-c3nnn(CC(=O)Nc4ccccc4Cl)n3)cc2)CC1
AC50 [1]: > 70 µM (inactive)
AC50 [2]: 3.25 µM (active)
AC50 [3]: 1.77 µM (active)

O=C(O)c1cnn(-c2nc(-c3cccc([N+](=O)[O-])c3)cs2)c1C(F)(F)F
IC50 [7]: 11 µM (active)
CC50 [8]: 37.9 µM (active)
EC50 [9]: > 260 µM (inactive)

CC(c1ccccc1)N1CCc2[nH]c(=S)[nH]c(=O)c2C1 (centres undefined)
IC50 [5]: > 66 µM (inactive)
IC50 [6]: > 66 µM (inactive)

C[C@@H]1CN([C@H](C)CO)C(=O)c2cc(NS(=O)(=O)c3ccc(F)cc3)ccc2O[C@H]1CN(C)Cc1ccc(C(F)(F)F)cc1
AC50 [10]: 33.9 µM (active)

Cc1ccc(/C(O)=C/c2nc3ccccc3oc2=O)cc1
EC50 [11]: > 300 µM (inconclusive)
EC50 [12]: > 300 µM (inconclusive)
IC50 (cells): 4.72 µM (active)
EC50 [13]: 11.4 µM (active)

NC(=NO)c1ccccc1N1CCC(Cc2ccccc2)CC1
AC50 [4]: 27.4 µM (active)

CC1CCCCC1NC(=O)c1cccc(N2C(=O)C3C4C=CC(C4)C3C2=O)c1 (centres undefined)
IC50 [7]: 14.5 µM (active)

O=C(CCc1ccccc1)NC1C2CC3CC(C2)CC1C3 (centres undefined)
IC50 (cells): 18.6 µM (active)

CN(c1cccc(NC(=O)CN(c2ccc(C34CC5CC(CC(C5)C3)C4)cc2)S(C)(=O)=O)c1)S(C)(=O)=O
EC50 [14]: 7.81 µM (active)
AC50 [1]: 31.2 µM (active)
EC50 [15]: 1.6 µM (active)
AC50 [2]: 7.86 µM (active)
AC50 [3]: 7.58 µM (active)

Cc1cccc(NC2SC(=O)NC2=O)c1 (centres undefined)
IC50 [5]: > 66 µM (inactive)
IC50 [6]: > 66 µM (inactive)

Cc1cc(C)nc(Nc2n[nH]c(-c3ccc(N)cc3)n2)n1
AC50 [4]: 0.311 µM (active)

Cc1cc(C)n(CCC(=O)N2CCCC(Nc3ccc(F)cc3)C2)n1 (centres undefined)
AC50 [4]: 33.3 µM (active)

Cc1ccc(C(=O)N2c3ccccc3N(Cc3ccccc3)C(=O)C2(C)C)cc1
AC50 [1]: > 70 µM (inactive)
AC50 [2]: 4.11 µM (active)
EC50 [13]: > 53 µM (inactive)
IC50 [16]: 5.66 µM (active)
AC50 [3]: 6.92 µM (active)

COc1ccc(N2CCN(C(=O)CN3CCN(c4nc(-c5ccc(F)cc5)cs4)CC3)CC2)cc1
AC50 [1]: 58 µM (active)
AC50 [2]: 1.16 µM (active)
AC50 [3]: 1.81 µM (active)

Sc1nnc(-c2ccccn2)n1/N=C/c1ccc(Br)s1
AC50 [4]: 10.5 µM (active)

OC1(c2ccc(Br)cc2)C[N+](c2ccccc2)=C2SCCN21 (centres undefined)
IC50 [5]: > 66 µM (inactive)
IC50 [6]: > 66 µM (inactive)

Nc1n[nH]c(Sc2c([N+](=O)[O-])cc(C(F)(F)F)cc2[N+](=O)[O-])n1
IC50 [5]: > 66 µM (inactive)
IC50 [6]: > 66 µM (inactive)

CSc1ccc(CNc2ncc(-c3cccc([N+](=O)[O-])c3)n2C)cc1
IC50 (cells): 21.8 µM (active)

COc1ccc(C2=NS(=O)(=O)N(C)C(C(=O)N3CCc4ccccc4C3)=C2)cc1OC
AC50 [1]: 69.3 µM (active)
AC50 [2]: 4.43 µM (active)
AC50 [3]: 4.99 µM (active)

CCN(CC)CC(=O)Nc1ccc2c(c1)Nc1ccccc1CC2
AC50 [4]: 0.221 µM (active)

CCOC(=O)c1c(-c2ccccc2)csc1NC(=O)C1CCCO1 (centres undefined)
IC50 [5]: > 66 µM (inactive)
IC50 [6]: > 66 µM (inactive)

O=C(O)c1ccc(Sc2nnc(-c3cccc(Br)c3)o2)c([N+](=O)[O-])c1
AC50 [4]: 0.044 µM (active)

NC(=O)COC(=O)c1ccc(Cl)c(S(=O)(=O)N2CCN(c3ccc(F)cc3)CC2)c1
IC50 [7]: 13.8 µM (active)

Cc1ccc(S(=O)(=O)Nc2ccc3ncccc3c2)cc1
AC50 [1]: 45.9 µM (active)
AC50 [2]: 29.3 µM (active)
AC50 [3]: 2.2 µM (active)

CCOc1ccc(NC(=O)COC(=O)C2(C)CC2(Cl)Cl)c([N+](=O)[O-])c1 (centres undefined)
EC50 [17]: > 195 µM (not active)
IC50 (cells): 38.4 µM (active)

COc1ccc(NC(=S)N/N=C2\CC(C)(C)Oc3ccc(OC)cc32)cc1
IC50 [5]: > 66 µM (inactive)
IC50 [6]: > 66 µM (inactive)

COc1cccc(COC(=O)CCNC(=O)c2ccc(Br)cc2)c1OC
IC50 (cells): 15.4 µM (active)
